Reference: US20240058329A1, “OPHTHALMIC COMPOSITION OF RIFAMYCIN, AND USE THEREOF” (BNC KOREA CO., LTD., priority 2020, published 2024)
Where two headings read alike, the source gives them in different places. Marks after values point to notes of the source that are not given here.

Tests used:
[1] = Rabbit; 0.5%, 50 μL, 250 μg; Sigurdsson et al. (2007); cited from earlier work
[2] = Retina exposure level of rifampicin after application of topical eye drops (3 or 10 drops), LC/MS; format: in vivo, Sprague-Dawley rats; conditions: for Drug amount detected in retina: Rat, 0.25%, present study; for Rifampicin extracted from retina: rat, average of n = 3
Method: The remaining two rats received the same application, but 10 drops of the eye drops, in each eye under isoflurane sedation. A single drop contained 5 μL of the above-described formulation, and application of each drug drop was carried out with intervals of 30 minutes. After the eye drop application, the retina was excised from each rat under a dissection microscope. In addition, “non-treated” negative controls were used, and the retina was excised from two rats without performing any treatments on the rats. The retina was placed in a 1.5-ml microcentrifuge tube (1 retina/tube), and was fully washed with DPBS. After completion of the washing procedures, the retinal tissues in the microcentrifuge tube were frozen in dry ice, and were then preserved for quantification by LC/MS analysis.

[3] = system: oxygen-induced retinopathy rat models; experiment: Neovascularization in retina quantified by capillaries in histology sections; format: in vivo, Sprague-Dawley rat; conditions: n = 3, vehicle only control 16.3
Method: Oxygen-induced retinopathy rat models were produced according to the protocols of Yanni et al. (2010) and Dorfmann et al. (2008). Sprague-Dawley rat babies (and their nursing mothers) were exposed to a cycling oxygen environment (80% and 21%, about one day for each) for 15 days after starting from the day of birth (Day 0). On Day 15 (P15), the animals were moved to room air. […] An eye drop formulation shown as Example 1 A in Table 1, or a vehicle only was administered to the eyes of the baby rats every day, for 5 days between P15 and P19, in the morning, about the noon, and in the evening. […] On P20, all of the animals were euthanized, and the retina was visualized as histology sections. In those histology sections, capillaries in the retinal tissues in 3 eye balls (AMD 101 topical application, AMD 101 SC injection administration group, and non-induction of retinopathy) or 5 eye balls (control administration group of a vehicle only) were counted, so that neovascularization was quantified. These eye balls were selected from different animals in the above-described administration groups. Representative images of the histology sections are shown (see FIGS. 1A to 1H).

[4] = 3% rifampicin solution, boric acid buffer
Method: In the present example, the pH value was set to be pH 2 to 12, and the concentration of a nonionic surfactant was set to be 0.001% by weight to 50% by weight. As buffer solutions, a boric acid buffer solution, and a phosphoric acid buffer solution and a citric acid buffer solution were used.
A 50 mM phosphoric acid buffer solution, a 50 mM citric acid buffer solution, or a 25 mM boric acid-borax buffer solution (all of which were final concentrations) was prepared, and thereafter, about 0.9% sodium chloride, about 0.1% EDTA, 0.01% benzalkonium chloride (all of which were final concentrations), and various concentrations of nonionic surfactants (Tween 80 or Polyoxyethylene (7) alkyl (sec-C11-15) ethers) were mixed into the solution. […] In the case of using a citric acid buffer solution, the pH value of the mixed solution was adjusted using hydrochloric acid under conditions of pH 2.6 or less. In the case of using boric acid, the pH value was adjusted using hydrochloric acid under conditions of pH 5.7 or less. […] The thus prepared solutions were continuously blended for about 2 hours, and the pH value thereof was measured at 25° C.

Rifampicin extracted from retina ([2]; 3 drops (5 μL each, 30 min intervals) of 0.25% rifampicin eye drops (Example 1A) per eye) | Rifampicin extracted from retina ([2]; 10 drops (5 μL each, 30 min intervals) of 0.25% rifampicin eye drops (Example 1A) per eye) | nonionic surfactant addition by which the composition is solubilized (from relational expression) ([4]; pH 3.0) | nonionic surfactant addition by which the composition is solubilized (from relational expression) ([4]; pH 4.0) | pH at which solubilization of rifampicin does not need addition of a surfactant ([…]) | rifampicin concentration whose solubilization did not need addition of a surfactant (pH range of pH 2 to pH 12) | Structure (SMILES) | Drug amount detected in retina [1] | Drug amount detected in retina ([2]; 3 drops (15 μL, 37.5 μg)) | Drug amount detected in retina ([2]; 10 drops (50 μL, 125 μg)) | Average numbers of capillaries in high power field per eye ([3]; 0.25% AMD101 topical eye drop (Example 1A), three times a day P15 to P19) | Average numbers of capillaries in high power field per eye ([3]; 0.5% AMD101 SC injection (Example 6A), 20 mg/Kg once a day P15 to P19)
– | – | – | – | – | – | C[C@@H]1C[C@H]2[C@@H]3CCC4=CC(=O)C=C[C@]4(C)[C@@]3(F)[C@@H](O)C[C@]2(C)[C@@]1(O)C(=O)CO [Dexamethasone] | About 33 ng/1 g of ng/1 g of retinal tissues | – | – | – | –
1,288* ng/1 g of tissues | 2,939* ng/1 g of tissues | about 8.2% | about 10.7% | ≥ 8.5 | ≤ 0.002 % by weight | CO[C@H]1/C=C/O[C@@]2(C)Oc3c(C)c(O)c4c(O)c(c(/C=N/N5CCN(C)CC5)c(O)c4c3C2=O)NC(=O)/C(C)=C\C=C\[C@H](C)[C@H](O)[C@@H](C)[C@@H](O)[C@@H](C)[C@H](OC(C)=O)[C@@H]1C [rifampicin] | – | About 1,288 ng/1 g of ng/1 g of retinal tissues | About 2,939 ng/1 g of ng/1 g of retinal tissues | 7.78 | 9.28
